Test results: paper PMC7041945, “Misfolded proteins bind and activate death receptor 5 to trigger apoptosis during unresolved endoplasmic reticulum stress” (eLife, 2020)

Tests used:
MPZ = assay: qPCR of transfected MPZ transcript (primers 296+297), normalized to GAPDH; format: cell-based; conditions: qPCR Rep 2, WT MPZ GFP 1000 ng, or empty traffo + Tg; for 2^-(deltaCq), MPZ: vs avg GAPDH
[1] = tested on: GADD34 mRNA in HCT116 cells; assay: qPCR of GADD34 transcript; format: cell-based, Homo sapiens; conditions: HCT116, 100 nM for 24 hours, norm to GAPDH
[2] = tested on: DR5 / ERGIC53 / giantin in HCT116 cells; assay: Immunofluorescence co-localization (Pearson's correlation per cell); format: cell-based, Homo sapiens
Procedure: HCT116 were seeded at 25000 cells per well in an 8-well glass-bottom μSlide (Ibidi 80827) pre-coated with Collagen IV (Sigma-Aldrich C6745, 0.03 mg/ml in PBS incubated for 30 min at RT, and then rinsed off with PBS x 3) in growth media 18 hr prior to transfection (see above for protocol). 24 hr post-transfection, the cells were fixed using 4% paraformaldehyde (PFA, Electron Microscopy Sciences) or methanol, depending on the antibody combination used for immunostaining (see table below). Samples were protected from light after fixation to preserve GFP fluorescence.
For fixation with 4% PFA, 32% PFA was added directly to the well in growth media for a 1:8 dilution and incubated for 10–15 min at RT. Cells were then permeabilized with PHEM buffer (60 mM PIPES, 25 mM HEPES, 10 mM EGTA, 2 mM MgCl2-hexahydrate, pH 6.9) containing 0.1% Triton-X100 for 10 min at RT for three washes.
For fixation with methanol, media was removed and cells were washed with cold PBS. Then methanol (pre-cooled at −20°C) was added to the well and incubated at −20°C for 3–4 min. The methanol was promptly aspirated and replaced with PHEM buffer (without Triton X-100), followed by two more 10 min washes with PHEM at RT.
To block against non-specific antibody interactions, cells were rinsed in PHEM (without 0.1% Triton X-100) and then incubated with PHEM containing 2% normal goat serum (Jackson Immunoresearch Laboratories, 005-000-121) for 1 hr at RT. Primary antibodies were incubated in blocking solution overnight at 4°C at the dilution noted in the table above. Cells were then washed with PHEM buffer for 10 min at RT x three and incubated with secondary antibodies, anti-mouse-AlexaFluor546 (Invitrogen A11030) and anti-rabbit-AlexaFluor633 (Invitrogen A21071), diluted 1:1000 in PHEM with 2% normal goat serum. (Secondary antibody solutions were centrifuged at 15000xg for 20 mins at 4°C to remove aggregates prior to incubating with cell samples.) After a 1 hr incubation at RT, cells were washed with PHEM buffer once, then incubated with PHEM buffer containing nuclear stain (DAPI, Molecular Probes, Eugene, OR, D-1306, 5 μg/mL), and finally rinsed with PHEM buffer twice before imaging.
Samples were imaged on a spinning disk confocal with Yokogawa CSUX A1 scan head, Andor iXon EMCCD camera, and 40x Plan Apo air Objective NA 0.95 or 100x ApoTIRF objective NA 1.49 (Nikon).
From the 405 nm channel, cell nuclei were identified as primary objects using maximum correlation thresholding (MCT) and shape to distinguish clumped objects. Secondary objects were outlined using propagation from the nuclei (DAPI) after applying MCT from the 488 nm, 561 nm, and 633 nm channels. Tertiary objects for each cell was identified as the mask of each nucleus subtracted from the mask of its corresponding secondary object in each channel, yielding masks for intracellular GFP-tagged protein from the 488 nm channel, for intracellular DR5 from the 561 nm channel, and for the organelle marker in the 633 nm channel. For overlap between DR5 and MPZ/RHO-GFP, Pearson’s correlation coefficients were calculated within the MPZ/RHO mask for each cell to filter out untransfected cells. For overlap between DR5/MPZ and organelle markers, Pearson’s correlation coefficients were calculated within tertiary objects for the organelle marker in GFP+ cells. Statistical analyses for all data sets were performed using GraphPad Prism 6.0.

[3] = tested on: PARP / caspase 8 / caspase 3 in HCT116 cells; assay: Western blot of HCT116 lysates (PARP, caspase 8 and caspase 3 cleavage, DR5 level); format: cell-based, Homo sapiens; conditions: HCT116, 24 hr, titration of construct
Procedure: Media and cells for each sample were collected by cell scraping into cold PBS followed by a subsequent wash with 1 ml of cold PBS. The cell pellet was then resuspended in cold lysis buffer (30 mM HEPES pH 7.2, 150 mM NaCl, 1% Triton X100, 1x Roche protease inhibitor) and lysed via needle shearing on ice. Samples were centrifuged at 1000xg for 5 min, and the supernatants were mixed with sample buffer to a final concentration of 1% SDS, 62.5 mM Tris-HCl pH 6.8, 10% glycerol, 0.1% bromophenol blue, 50 mM DTT. Samples were boiled at 95°C and loaded on SDS-PAGE gels (GenScript). Samples were subsequently transferred onto nitrocellulose membranes, blocked with Odyssey buffer (Licor) for 1 hr at RT, and probed with primary antibodies diluted 1:1000 (unless otherwise specified) in Licor Odyssey buffer supplemented with 0.1% Tween 20% at 4°C overnight.
Bound primary antibodies were probed by HRP-conjugated secondary antibodies (Amersham, Piscataway, NJ, 1:10000) using enhanced chemiluminescence (SuperSignal; Thermo Scientific, Waltham, MA) detected by standard film or through the ChemiDoc XRS+ Imaging System (Bio-Rad).

[4] = HCT116, 24 hr post-transfection, Mean ± SEM

C/C=C(/C)C(=O)O[C@H]1C(C)=C2[C@H]([C@@H]1OC(=O)CCCCCCC)[C@@](C)(OC(C)=O)C[C@H](OC(=O)CCC)[C@@]1(O)[C@H]2OC(=O)[C@@]1(C)O [thapsigargin, reference compound]
avg. fold induction relative to WT MPZ DMSO, MPZ (MPZ; mean of 3): 9.712 fold
fold induction relative to WT MPZ DMSO, MPZ (MPZ; replicate 1): 3.402 fold
fold induction relative to WT MPZ DMSO, MPZ (MPZ; replicate 2): 14.9405 fold
fold induction relative to WT MPZ DMSO, MPZ (MPZ; replicate 3): 10.7918 fold
2^-(deltaCq), MPZ (MPZ; replicate 1): 0.0001664
2^-(deltaCq), MPZ (MPZ; replicate 2): 0.0007308
2^-(deltaCq), MPZ (MPZ; replicate 3): 0.0005279
avg. fold induction, GADD34 [1]: 11.3183

FTWRYQPEGGRDAISIFHYA [MPZ-ecto peptide-eGFP, expressed construct: MPZ ectodomain replaced by the MPZ-ecto peptide, GFP-tagged]
Pearson's correlation per cell of GFP-tagged peptide with DR5 [2, 4]: 0.23 ± 0.04
Pearson's correlation per cell of GFP-tagged peptide with ERGIC [2, 4]: 0.18 ± 0.04
Pearson's correlation per cell between DR5 and ERGIC ([2]; HCT116 expressing GFP-tagged peptide, 24 hr, Mean ± SEM): 0.34 ± 0.03
PARP cleavage and caspase activity [3]: induced more PARP cleavage and caspase activity than similar or higher levels of the peptides containing Glu substitutions
PARP cleavage and caspase activity ([3]; listed as WT MPZ-ecto): PARP cleavage and caspase activity measured in cell lysates were increased

RHO-GFP: GFP-tagged rhodopsin expressed from plasmid
overlap (mean Pearson's correlation) with DR5 signal ([2]; versus 90° rotated images, 24 hr): statistically significant overlap with DR5 signal
